Results on ten compounds are retold here after PubChem BioAssay (NCI).

Some test systems named below: NCI-H23 lung; MCF7 breast; U251 CNS; A498 renal; T-47D breast; HCT-15 colon; SK-MEL-28 melanoma; ACHN renal; OVCAR-4 ovarian; SF-295 CNS; LOX IMVI melanoma; SW-620 colon; MOLT-4 leukemia; UO-31 renal; UACC-257 melanoma; CCRF-CEM leukemia; CAKI-1 renal; SK-OV-3 ovarian; IGROV1 ovarian; HOP-62 NSCLC.
Holding throughout (experiment): NCI-60 cell line screen, 48 h

Molecules are shown by their SMILES.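 Test compounds were applied to cells in 96-well plates for 48 hours at 5 doses. TGI is the concentration that stops growth completely.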 Bounds are passed on as bounds.

For the compound `COC(=O)c1ccc(NCC2=CC(=O)C=CC2=O)cc1O`, the TGI in the assay on NCI-H23 lung was 36.6 µM; in the assay on MCF7 breast, 76.3 µM; with U251 CNS, greater than 100 µM; with A498 renal, 32.8 µM; in the assay on T-47D breast, 47.1 µM; with HCT-15 colon it was 34.5 µM. Moreover, the TGI in the assay on SK-MEL-28 melanoma is greater than 100 µM; with ACHN renal, 26.8 µM; with OVCAR-4 ovarian it was 30.3 µM; in the assay on SF-295 CNS it was 32.3 µM; in the assay with LOX IMVI melanoma, 37.5 µM; with SW-620 colon it was greater than 100 µM. Besides, the TGI with MOLT-4 leukemia was greater than 100 µM; in the assay with UO-31 renal it was 25.4 µM; in the assay on UACC-257 melanoma it was 30.6 µM; with CCRF-CEM leukemia it was greater than 100 µM; in the assay with CAKI-1 renal, 32.8 µM; in the assay on SK-OV-3 ovarian, 42.5 µM. Besides, the TGI was determined as 41.6 µM in the assay with IGROV1 ovarian and 34.5 µM with HOP-62 NSCLC.

For the compound `Cc1cc(-c2nc3ccc(F)cc3s2)ccc1NC(=O)C(N)CCCCN` (stereo not given), the TGI in the assay on NCI-H23 lung was found to be 18.5 µM; in the assay with MCF7 breast, 4.46 µM; in the assay with U251 CNS it was 5.01 µM; in the assay with A498 renal it was 24 µM; with T-47D breast it was 16.1 µM; in the assay on HCT-15 colon it was 23.6 µM. Further, the TGI with SK-MEL-28 melanoma was 34.8 µM; in the assay on ACHN renal, 25.6 µM; in the assay on OVCAR-4 ovarian, 24.6 µM; in the assay on SF-295 CNS, 19.3 µM; with LOX IMVI melanoma it was 4.73 µM; in the assay with SW-620 colon it was 7.93 µM. Also, the TGI in the assay with MOLT-4 leukemia came out at 7.94 µM; with UO-31 renal, 16.1 µM; with UACC-257 melanoma, 28.1 µM; with CCRF-CEM leukemia it was 7.68 µM; with CAKI-1 renal, 24.9 µM; in the assay with SK-OV-3 ovarian, 27.1 µM. The TGI in the assay with IGROV1 ovarian is 17.6 µM; with HOP-62 NSCLC it was 12.7 µM.

Turning to `CCOC(=O)C1=NN(c2ccc(C)cc2)C2(c3ccccc3)C=C(c3ccccc3)N(C)CCN12` (stereo not given), the TGI with NCI-H23 lung, in the assay with MCF7 breast, with U251 CNS, with A498 renal, in the assay with T-47D breast and in the assay with HCT-15 colon was greater than 100 µM in each case. Also, the TGI in the assay with SK-MEL-28 melanoma, in the assay on ACHN renal, in the assay on OVCAR-4 ovarian, in the assay on SF-295 CNS, with LOX IMVI melanoma and with SW-620 colon was greater than 100 µM in each case. The TGI in the assay with MOLT-4 leukemia, with UO-31 renal, in the assay with UACC-257 melanoma, with CCRF-CEM leukemia, in the assay with CAKI-1 renal and with SK-OV-3 ovarian was greater than 100 µM each time. Also, the TGI in the assay on IGROV1 ovarian and in the assay with HOP-62 NSCLC was greater than 100 µM in each case.

For the compound `CC1(C)C(CBr)=[N+]([O-])C(C)(C)N1O`, the TGI was greater than 10 µM in the assay on NCI-H23 lung; greater than 10 µM in the assay on MCF7 breast; greater than 10 µM in the assay with U251 CNS; greater than 10 µM in the assay on A498 renal; 5.24 µM in the assay with T-47D breast; greater than 8.12 µM in the assay on HCT-15 colon. Moreover, the TGI is greater than 10 µM in the assay with SK-MEL-28 melanoma; greater than 8.86 µM in the assay on ACHN renal; 4.23 µM with OVCAR-4 ovarian; greater than 10 µM with SF-295 CNS; greater than 10 µM in the assay with LOX IMVI melanoma; 4.86 µM in the assay with SW-620 colon. The TGI was greater than 7.43 µM in the assay on MOLT-4 leukemia; greater than 10 µM in the assay on UO-31 renal; greater than 10 µM in the assay on UACC-257 melanoma; 4.49 µM in the assay on CCRF-CEM leukemia; 5.87 µM with CAKI-1 renal; greater than 10 µM in the assay with SK-OV-3 ovarian. Further, the TGI in the assay with IGROV1 ovarian and in the assay on HOP-62 NSCLC was greater than 10 µM in each case.

Consider `CCCC(=O)Oc1c2ccsc2c(OC(=O)CCC)c2ccsc12`, for which the TGI amounted to 3.64 µM in the assay on NCI-H23 lung; 7.55 µM with MCF7 breast; 4.4 µM in the assay with U251 CNS; 7.34 µM with A498 renal; 12.1 µM with T-47D breast; 4.59 µM with HCT-15 colon. Besides, the TGI with SK-MEL-28 melanoma was found to be 1.59 µM; in the assay on ACHN renal it was 9.99 µM; in the assay on OVCAR-4 ovarian, 5.7 µM; with SF-295 CNS, 0.885 µM; with LOX IMVI melanoma, 10.7 µM; with SW-620 colon, 8.9 µM. Further, the TGI came to 7.63 µM with MOLT-4 leukemia; 5.11 µM with UO-31 renal; 1.82 µM in the assay on UACC-257 melanoma; 9.13 µM in the assay with CCRF-CEM leukemia; 11.7 µM with CAKI-1 renal; 10.4 µM in the assay with SK-OV-3 ovarian. The TGI in the assay on IGROV1 ovarian was 6.87 µM; with HOP-62 NSCLC, 2.9 µM.

Regarding `C=C(C)[C@@]12C[C@H](OC(=O)[C@H](O)[C@@H](NC(=O)c3ccccc3)c3ccccc3)C(C)=C1[C@@H](OC(C)=O)C(=O)[C@@]1(C)C([C@@H]2OC(=O)c2cc(F)cc(F)c2)C2(OC(C)=O)CO[C@@H]2C[C@@H]1O` (stereo not given in full), the TGI was 3.14 µM in the assay on NCI-H23 lung; greater than 10 µM in the assay with MCF7 breast; greater than 5.16 µM in the assay on U251 CNS; 3.03 µM in the assay on A498 renal; greater than 8.57 µM in the assay on T-47D breast; greater than 5.21 µM with HCT-15 colon. In addition, the TGI in the assay with SK-MEL-28 melanoma is greater than 10 µM; with ACHN renal, greater than 9.36 µM; in the assay on OVCAR-4 ovarian it was greater than 10 µM; with SF-295 CNS, greater than 10 µM; in the assay with LOX IMVI melanoma, 2.21 µM; in the assay with SW-620 colon, greater than 10 µM. For the same compound, the TGI in the assay on MOLT-4 leukemia is 1.24 µM; in the assay with UO-31 renal, greater than 10 µM; with UACC-257 melanoma, 2.79 µM; in the assay with CCRF-CEM leukemia it was 0.355 µM; with CAKI-1 renal, greater than 10 µM; in the assay on SK-OV-3 ovarian it was greater than 10 µM. Moreover, the TGI with IGROV1 ovarian is greater than 10 µM; in the assay with HOP-62 NSCLC, greater than 5.79 µM.

For `COC(=O)c1ccc(Oc2nc3ccc(C(F)(F)F)cc3nc2-c2ccccc2)cc1`, the TGI in the assay with NCI-H23 lung, in the assay with MCF7 breast, in the assay with U251 CNS, in the assay on A498 renal, with T-47D breast and in the assay with HCT-15 colon was greater than 100 µM in each case. In addition, the TGI in the assay on SK-MEL-28 melanoma, in the assay on ACHN renal, in the assay with OVCAR-4 ovarian, in the assay with SF-295 CNS, in the assay with LOX IMVI melanoma and in the assay with SW-620 colon was greater than 100 µM throughout. The TGI with MOLT-4 leukemia, in the assay with UO-31 renal, in the assay with UACC-257 melanoma, with CCRF-CEM leukemia, in the assay with CAKI-1 renal and in the assay on SK-OV-3 ovarian was greater than 100 µM throughout. Besides, the TGI with IGROV1 ovarian and in the assay with HOP-62 NSCLC was greater than 100 µM in each case.

For `Fc1ccccc1-c1cc(=S)c2cc3c(cc2[nH]1)OCO3`, the TGI in the assay with NCI-H23 lung, with MCF7 breast, with U251 CNS, with A498 renal, in the assay with T-47D breast and in the assay with HCT-15 colon was greater than 100 µM in each case. In addition, the TGI in the assay on SK-MEL-28 melanoma, in the assay on ACHN renal, with OVCAR-4 ovarian, in the assay on SF-295 CNS, with LOX IMVI melanoma and in the assay with SW-620 colon was greater than 100 µM each time. In addition, the TGI with MOLT-4 leukemia is greater than 25.1 µM; in the assay with UO-31 renal, greater than 100 µM; in the assay with UACC-257 melanoma, greater than 100 µM; with CCRF-CEM leukemia it was greater than 100 µM; in the assay with CAKI-1 renal, greater than 100 µM; in the assay with SK-OV-3 ovarian, greater than 100 µM. For the same compound, the TGI with IGROV1 ovarian and in the assay on HOP-62 NSCLC was greater than 100 µM throughout.

Consider `CCOP(=O)(OCC)/C(=C\n1ccc(=O)[nH]c1=S)C(=O)OC`, for which the TGI in the assay on NCI-H23 lung, in the assay with MCF7 breast, with U251 CNS, in the assay with A498 renal, with T-47D breast and with HCT-15 colon was greater than 100 µM each time. In addition, the TGI with SK-MEL-28 melanoma, with ACHN renal, with OVCAR-4 ovarian, with SF-295 CNS, in the assay on LOX IMVI melanoma and in the assay on SW-620 colon was greater than 100 µM throughout. Also, the TGI with MOLT-4 leukemia, in the assay with UO-31 renal, in the assay with UACC-257 melanoma, with CCRF-CEM leukemia, in the assay with CAKI-1 renal and in the assay with SK-OV-3 ovarian was greater than 100 µM in each case. Moreover, the TGI with IGROV1 ovarian and with HOP-62 NSCLC was greater than 100 µM in each case.

As to `Cc1cn(CCCCOC(=O)NC(CCCN=C(N)N)C(=O)O)c(=O)[nH]c1=O` (stereo not given), the TGI in the assay on NCI-H23 lung, with MCF7 breast, in the assay with U251 CNS, in the assay on A498 renal, in the assay on T-47D breast and in the assay on HCT-15 colon was greater than 100 µM each time. The TGI in the assay on SK-MEL-28 melanoma, with ACHN renal, in the assay with OVCAR-4 ovarian, with SF-295 CNS, in the assay with LOX IMVI melanoma and in the assay on SW-620 colon was greater than 100 µM throughout. Also, the TGI with MOLT-4 leukemia, in the assay on UO-31 renal, in the assay on UACC-257 melanoma, with CCRF-CEM leukemia, in the assay with CAKI-1 renal and in the assay on SK-OV-3 ovarian was greater than 100 µM each time. For the same compound, the TGI in the assay with IGROV1 ovarian and in the assay with HOP-62 NSCLC was greater than 100 µM each time.
